{"source": "patent US10329532B2", "about": "“Method to direct differentiation of pluripotent stem cells into functional heart muscle” (GEORG-AUGUST-UNIVERSITÄT GÖTTINGEN STIFTUNG ÖFFENTLICHEN …, priority 2013, dated 2019)", "assay_type_in_all_cases": "cell-based, human", "key": {"[1]": {"test_system": "HES2 hPSCs", "assay": "2D cardiac differentiation of hPSC (MESP1 qPCR day 3, α-actinin flow cytometry day 16, beating activity)", "excerpt": "For this reason a cardiac differentiation protocol was firstly required which consistently produced cardiomyocytes and fibroblasts/stromal cells. The inventors optimized their cardiac differentiation protocol (FIG. 1a) for both yield and consistency, based on a previously published serum-free 2D hPSC differentiation protocol (Hudson et al. Stem Cells Dev 21, 1513-1523 (2012)). It was reasoned that robustness and efficiency could be enhanced if WNT activity was stabilized during the mesoderm induction phase. As surrogate marker for mesoderm induction MESP1 expression was analysed by qPCR on culture day 3; this was followed by flow cytometry for α-actinin (cardiomyocyte marker) at day 16, which were found correlated very well with the amount of beating activity.\nCardiac differentiation was optimized on the HES2 line. HES2 hPSCs were plated at 5×10^4 cells/cm^2 (1×10^5 cells/cm^2 for HES3 and hIPS lines) on 1:30 Matrigel/PBS coated-plates and cultured in 1:1 PSC-medium minus FGF-2 and HFF-conditioned medium (HFF-CM—harvested from 5 day confluent irradiated HFF cultures) with 10 ng/mL FGF2. For the hIPS line 10 μM Y-27632 was added to this medium. After 1 day the cells were rinsed with RPMI medium, then differentiated as indicated in each figure with 0.5 ml of medium in each well of a 24 well plate. The protocol details for each figure are outlined in FIG. 8.\n(§1) Cells, BHMs or human heart biopsies were harvested and stored at −80° C. until RNA extraction using Trizol following manufacturer's instructions (Applied Biosystems). 1 μg of RNA was then treated with DNAse (Roche) followed by cDNA synthesis using a High Capacity cDNA Reverse Transcription Kit (Applied Biosystems). qPCR was performed using Fast SYBR Green Master Mix (Applied Biosystems) on a 384-well format AB7900 HT (Applied Biosystems). Gene expression was normalized using 2^−ΔCt or 2^−ΔΔCt using GAPDH as the housekeeping gene which we found to be consistently expressed between conditions in all of our experiments. Primer details are given in below Table 1.\n(§2) Cells were stained either live or fixed using Histofix for 10 min at room temperature or ethanol. The cells were stained in 5% FBS in PBS (membrane blocking buffer) for cell surface markers (excluding TRA-1-60) and blocking buffer for internal markers. The cells were then stained with primary antibodies in blocking buffer for 45 min followed by secondary antibodies in blocking buffer and Hoechst for 30 min at 4° C. (Table 2). A BD LSRII was used for flow cytometry analysis (BD Biosystems). Live cells populations were gated based on forward-side scatter profiles; fixed cells populations were gated based on Hoechst staining. BD FACSDiva Software (BD Bioscience) or Cyflologic v1.2.1 (Cyflo Ltd) were used for analysis."}, "[2]": {"test_system": "bioengineered heart muscle (BHM)", "assay": "Isometric contraction measurements of BHM (twitch tension/force of contraction) in organ baths", "conditions": "for twitch tension/force of contraction: growth factor added during cardiac maturation (FGF2: 10 ng/mL, TGFb1: 1 ng/mL)", "procedure": "Briefly, contraction experiments are performed in organ baths at 37° C. under constant bubbling with 5% CO2 and 95% O2 to maintain a physiological pH in Tyrode's solution containing (all in mM): 120 NaCl, 1 MgCl2, 0.2 CaCl2, 5.4 KCl, 22.6 NaHCO3, 4.2 NaH2PO4, 5.6 glucose and 0.56 ascorbate. Calcium is adjusted using a 0.2 M calcium chloride solution. All BHM are analysed at 3 Hz with 5 ms square pulses of 200 mA electrical current in order to pace at approximately the embryonic heart rate. Stimulation frequency is altered to confirm proper force-frequency response (Bowditch mechanism). BHM are mechanically stretched at intervals of 125 μm until the maximum twitch force is observed (force-length response; Frank-Starling mechanism).\nBriefly, all contraction experiments are performed in organ baths at 37° C. and physiological pH in Tyrode's solution containing (all in mM): 120 NaCl, 1 MgCl2, 0.2 CaCl2, 5.4 KCl, 22.6 NaHCO3, 4.2 NaH2PO4, 5.6 glucose and 0.56 ascorbate. Calcium is adjusted using a 0.2 M calcium chloride solution. All BHM are analysed at 3 Hz with 5 ms square pulses of 200 mA electrical current in order to pace at approximately the embryonic heart rate. Stimulation frequency is altered to confirm proper force-frequency response (Bowditch mechanism). BHM are mechanically stretched at intervals of 125 μm until the maximum twitch force is observed at 2 mM calcium (Frank-Starling mechanism). Subsequently, BHM are subjected to different calcium concentrations (0.2, 0.4, 0.8, 1.2, 1.6, 2.0, 2.4 mM) and the twitch force is recorded. For isoprenaline experiments the calcium concentration is adjusted to 0.6 mM and subsequently the isoprenaline concentration is adjusted to 1 μM.\n(§3) BHM formation was optimized on the HES2 line. HES2 hPSCs were suspended 1:1 in PSC-medium minus FGF-2 and HFF-conditioned medium (HFF-CM—harvested from 5 day confluent irradiated HFF cultures) with 10 ng/mL FGF2 and mixed with a collagen I hydrogel. For the HES3, and hIPS lines 10 μM Y-27632 was also added to the medium. The collagen I matrix was formulated with acid-soluabilized bovine collagen I (Devro) with an equi-volume of 2×DMEM (Gibco) and neutralized using 0.1 M sodium hydroxide. The hPSC/collagen I matrix was formulated to give a final collagen I concentration of 1 mg/ml and 5×10^5 hPSC per 170 μl. For the HES3 and hIPS lines 1×10^6 and 0.5×10^6 cells were used respectively per 170 μl. For each BHM, 170 μl of the hPSC/collagen I matrix was pipette into circular molds (i.d.=4 mm, o.d.=10 mm) fabricated using poly(dimethylsiloxane) (Sylgard, Dow Corning). After 10 min of culture in the incubator at 37° C. the collagen gelled and 1.25 ml of 1:1 human foreskin fibroblast-conditioned medium with 10 ng/ml FGF2 was added per BHM. The following day the BHMs were rinsed with RPMI medium and then differentiated as indicated in each figure, with 1.25 ml of medium per BHM. At day 13 the BHM were transferred onto mechanical stimulators as indicated. The protocol details for each figure are outlined in FIG. 8.\nContraction experiments were performed in organ baths at 37° C. and continuous bubbling with 5% CO2/95% O2 to maintain a physiological pH in Tyrode's solution containing (all in mM): 120 NaCl, 1 MgCl2, 0.2 CaCl2, 5.4 KCl, 22.6 NaHCO3, 4.2 NaH2PO4, 5.6 glucose and 0.56 ascorbate. Calcium was adjusted using a 0.2 M calcium chloride solution. All BHM were first analysed at 3 Hz with 5 ms square pulses of 200 mA in order to pace at approximately the embryonic heart rate. BHM were mechanically stretched at intervals of 125 μm until Lmax, i.e. the tissue length were maximum twitch tension/force of contraction was recorded in the presence of maximally inotropically active calcium concentrations (2 mmol/L; Frank-Starling mechanism). Subsequently, BHM were subjected to different calcium concentrations (0.2, 0.4, 0.8, 1.2, 1.6, 2.0, 2.4 mM) and the twitch force recorded. […]"}, "[3]": {"test_system": "bioengineered heart muscle (BHM)", "assay": "qPCR gene expression in BHM", "conditions": "for pathological hypertrophy marker ANP expression / β-MHC/α-MHC expression ratio: growth factor added during cardiac maturation (FGF2: 10 ng/mL, TGFb1: 1 ng/mL)", "procedure": "as §3, §1"}, "[4]": {"test_system": "bioengineered heart muscle (BHM)", "assay": "Flow cytometry of disassociated BHM (cell composition, cardiomyocyte size, cell cycle, cell number)", "conditions": "for cardiomyocyte size: growth factor added during cardiac maturation (FGF2: 10 ng/mL, TGFb1: 1 ng/mL)", "procedure": "as §3\nFor the initial BHM digestion protocol, BHMs were disassociated in 0.025 mg/ml Liberase TM (Roche), 30 mM 2,3-butanedione monoxime at 37° C. for 60 min in PBS. To preserve cell surface markers, BHM was disassociated using the same protocol as for the 2D digestion.\nas §2"}, "[5]": {"conditions": "calcium adjusted to 1.2 mM during cardiac maturation"}, "[6]": {"conditions": "ASC-2-P during the entire differentiation protocol, data not shown"}}, "note": "“Also recorded” adds a separate entry of the source. Read-outs that look alike come from different tables or passages of the source.", "data": [{"molecule": "Cc1c[nH]c(-c2cnc(NCCNc3ccc(C#N)cn3)nc2-c2ccc(Cl)cc2Cl)n1", "note": "[CHIR, CHIR99021, reference compound]", "values": [{"measurement": "beating activity", "setting": "[1]; CHIR alone or with the differentiation factors used in FIG. 1b,c", "result": "unable to induce any beating activity"}]}, {"molecule": "[Ca+2]", "note": "[calcium]", "values": [{"measurement": "EC50", "setting": "[2]; 29-30 day old BHM (increased culture time), read-out: calcium EC50 (twitch tension)", "result": 700, "unit": "µM"}, {"measurement": "EC50", "setting": "[2]; 22 day old BHM (previous data), read-out: calcium EC50 (twitch tension)", "result": 200, "unit": "µM"}, {"measurement": "elastic modulus", "setting": "[2]; [5]", "result": "increase"}, {"measurement": "resting tension", "setting": "[2]; [5]", "result": "increase in resting tension"}, {"measurement": "twitch tension of the BHM", "setting": "[2]; calcium adjusted to 1.2 mM during cardiac maturation (RPMI 0.42 mM)", "result": "greatly increased the twitch tension"}, {"measurement": "EC50", "setting": "[2]; characteristic of the BHM obtained by the method, read-out: calcium EC50", "result": "> 200", "unit": "µM"}, {"measurement": "calcium handling proteins by qPCR (CASQ2, PLN, ATP2A2, RYR2)", "setting": "[3]; calcium adjusted to 1.2 mM, data not shown", "result": "no changes in calcium handling proteins"}]}, {"molecule": "c1cc(-c2cnn3cc(-c4ccc(OCCN5CCCCC5)cc4)cnc23)ccn1", "note": "[dorsomorphin, reference compound]", "values": [{"measurement": "twitch tension/force of contraction, % of the control group", "setting": "[2]; 2 μmol/L dorsomorphin with each medium exchange from day 6 onwards", "result": 47, "unit": "%"}]}, {"molecule": "CC(C)NCC(O)c1ccc(O)c(O)c1", "note": "(stereo not shown) [isoprenaline, reference compound]", "values": [{"measurement": "inotropic response with extended culture", "setting": "[2]; 1 μM isoprenaline, 29-30 day vs 22 day old BHM, paced at 0.6 mM calcium", "result": "increased inotropic response"}, {"measurement": "inotropic response", "setting": "[2]; 1 μM isoprenaline, paced conditions at 0.6 mM calcium", "result": "more than 40 μN"}]}, {"molecule": "FGF2: growth factor FGF2 (Miltenyi Biotec)", "values": [{"measurement": "cardiomyocyte size", "setting": "[4]", "result": "increase in cardiomyocyte size"}, {"measurement": "α-actinin", "setting": "[1]; 5 ng/ml FGF2 during the first 3 days of differentiation, flow cytometry day 16", "result": "trend to increased α-actinin"}, {"measurement": "MESP1 expression", "setting": "[1]; 5 ng/ml FGF2 during the first 3 days of differentiation, qPCR day 3", "result": "trend to increased MESP1 expression"}, {"measurement": "twitch tension/force of contraction", "setting": "[2]", "result": "trend to decreased twitch tension"}, {"measurement": "pathological hypertrophy marker ANP expression", "setting": "[3]", "result": "induced (variably) pathological hypertrophy marker ANP"}, {"measurement": "β-MHC/α-MHC expression ratio", "setting": "[3]", "result": "did not change β-MHC/α-MHC expression ratio"}]}, {"molecule": "L-ascorbic acid 2 phosphate sesquimagnesium salt hydrate [ASC-2-P, reference compound]", "values": [{"measurement": "cardiomyocyte fraction", "setting": "[4]; ASC-2-P supplemented days 0-13", "result": "trend to increased cardiomyocyte fraction"}, {"measurement": "stromal cell fraction", "setting": "[4]; ASC-2-P supplemented days 0-13", "result": "no change in the stromal cell fraction"}, {"measurement": "cardiac differentiation efficiency in 2D protocol", "setting": "[1]; [6]", "result": "without changes in cardiac differentiation efficiency"}, {"measurement": "number of cells in 2D protocol", "setting": "[1]; [6]", "result": "significantly increasing the number of cells"}, {"measurement": "BHM twitch tension/force of contraction", "setting": "[2]; ASC-2-P supplemented during early BHM culture, days 0-13", "result": "significantly improved"}]}, {"molecule": "TGFβ1: growth factor TGFβ1 (Peprotech)", "values": [{"measurement": "cardiomyocyte size", "setting": "[4]", "result": "increase in cardiomyocyte size"}, {"measurement": "twitch tension/force of contraction", "setting": "[2]", "result": "trend to increased twitch tension"}, {"measurement": "contractile function of BHM (FOC: force of contraction)", "setting": "[2]; increasing TGFβ-1 during cardiac maturation phase, 0.3-10 ng/ml tested", "result": "enhances contractile function of BHM; also recorded: enhancement of contractile function of BHM in a concentration dependent manner"}, {"measurement": "pathological hypertrophy marker ANP expression", "setting": "[3]", "result": "decreased"}, {"measurement": "β-MHC/α-MHC expression ratio", "setting": "[3]", "result": "more mature β-MHC/α-MHC expression ratio"}]}, {"molecule": "BMP4: growth factor BMP4 (R&D Systems) (protein, UniProt P12644 293-408, looked up) Bone morphogenetic protein 4: SPKHHSQRARKKNKNCRRHSLYVDFSDVGWNDWIVAPPGYQAFYCHGDCPFPLADHLNSTNHAIVQTLVNSVNSSIPKACCVPTELSAISMLYLDEYDKVVLKNYQEMVVEGCGCR", "values": [{"measurement": "BMP4 concentration giving optimal and consistent induction of MESP1 and α-actinin expression", "setting": "[1]; BMP4 concentration varied whilst CHIR is present", "result": 5, "unit": "ng/mL"}]}]}
